Experimental data taken from a melting point compilation (Tetko et al.; mined from patent text by program, amines drawn as free bases though some values may be those of a salt).

SMILES | melting point
CC(C)(C)[C@H]1CC[C@H](CC2=C(Cl)C(=O)c3ccccc3C2=O)CC1 | 154 to 156 °C
Nc1ccc(S(=O)(=O)CI)cc1 | 170 to 172 °C
Cc1ccc(C(=O)CO)cc1 | 83 to 87 °C
Nc1ccc(Cl)c(C2SCCS2)c1 | 60 to 63 °C
OC1COC(O)C(F)(F)C1O (centres undefined) | 146 to 148 °C
COc1cc(C(N)C(N)=O)c(F)cc1Cl (centres undefined) | 162 °C
COC(=O)C1=C(C(=O)OC)C2(c3ccc(Cl)cc3Cl)CCC1O2 (centres undefined) | 78 °C
O=C(CCl)Nc1cc(Br)cc([N+](=O)[O-])c1NC(=O)CCl | 172 to 173 °C
NC(=O)CC(=O)NCCCOc1cccc(CN2CCCCC2)c1 | 85.3 to 88.3 °C
CCN1CCCC(NC(=O)c2cc(C)on2)C1 (centres undefined) | 84 to 86 °C
O=C(CCCN1CCC(O)CC1)c1ccccc1 | 101 to 102 °C
CNC1CN(c2c(F)cc3c(=O)c(C(=O)O)cn(C4CC4)c3c2F)C1 | 270 to 272 °C
CN1CCC(=C2c3cc(C=O)n(C)c3CCn3ncnc32)CC1 | 204 °C
Nc1ncnc2ncn(COCCO)c12 | 122 to 123 °C
CC(=O)OCCCC(C(=O)C=Cc1ccc(O)c(OC(F)(F)F)c1)C(=O)C=Cc1ccc(O)c(OC(F)(F)F)c1 (centres undefined) | 130 to 131 °C
Cc1nc2c(N)nc3ccccc3c2n1CCCNC(=O)OC(C)(C)C | 112 to 115 °C

SMILES | melting point
CNC(=O)c1snc(-c2cccc(C(F)(F)F)c2)c1N | 113 °C
COC1=CCC2=C(CC[C@H]3[C@@H]4CCC(=O)[C@@]4(C)CC[C@]23C)C1 | 155 to 158 °C
N#Cc1cc(Br)c2c(c1)N(C1CC1)CNS2(=O)=O | 250 to 253 °C
C[Si](C)(C)N(SN=C(Cl)C#N)[Si](C)(C)C | 29 to 30 °C
CCOC(=O)c1nnc2ccc(NC(C)C)cc2c1O | 170 to 171 °C
CCNc1cc(NS(=O)(=O)c2ccc(C(C)(C)C)cc2)nc(NCC)n1 | 316 to 318 °C
Nc1cc(C(=O)O)cc(S(N)(=O)=O)c1Sc1ccccc1 | 285 °C
CCOc1ccc(C2=NN(C3CCN(S(C)(=O)=O)CC3)C(=O)[C@@H]3CC=CC[C@H]23)cc1OCC | 99 to 102 °C
CN1CCN(Cc2nc(C(N)=O)nn2-c2ccc(Cl)cc2C(=O)c2ccccc2Cl)CC1 | 167 to 169 °C
Cc1oc(-c2ccco2)nc1COc1ccc(CO)cn1 | 120 to 121 °C
CC(C)Cn1cnc2c(N)nc3ccc(CCO)cc3c21 | 214 to 216 °C
N#CC1C(=O)NC(=O)C(C(=O)O)C12CCCCC2 (centres undefined) | 210 to 214 °C
CC12CCC(C(=O)O)=CC1=CCC1C2CCC2(C)C(C(=O)c3ccccc3)CCC12 (centres undefined) | 222 to 225 °C
CC(=O)SCSc1cn(C)nn1 | 71 to 72 °C
CCCCN(CCCC)c1ccc(C=CC=CC=CC2=C(C#N)C(=C(C#N)C#N)OC2(C)C)c(OC)c1 | 156 to 160 °C

The remaining lines, values ahead:

melting point | SMILES
184 °C | CC(=O)c1ccc(-c2ccc(CC(=O)NC3CCN(Cc4ccc(Cl)c(Cl)c4)CC3)cc2)cc1
106 to 110 °C | CCN1CCN(S(=O)(=O)c2ccc(C(CC3CCCC3)C(=O)Nc3nc4ccc(OC)nc4s3)cc2)CC1 (centres undefined)
90 °C | CN1CCC(NC(c2cccc(C(F)(F)F)c2)c2nc3ccccc3[nH]2)CC1 (centres undefined)
206 to 207 °C | COc1cc(Nc2nn(Cc3ccccc3)c(=O)c3ccccc23)cc(OC)c1OC
124 to 127 °C | Cc1cccc(C)c1N(CC(C)N1C(=O)c2ccccc2C1=O)S(C)(=O)=O (centres undefined)
186 to 187 °C | CS(=O)(=O)NCCCn1cnc(-c2ccc(F)cc2)c1-c1ccncc1
57 to 62 °C | CC(C)c1cccc(C(C)C)c1NC(=O)CNC(c1ccccc1)c1cccc(CO)c1 (centres undefined)
128 to 129 °C | Cc1ccc2ncc(CSc3ccc(N)cc3)n2c1
158 to 163 °C | CCCc1ccc(COc2ccc3c(c2)CCC(CN2CC(C(=O)O)C2)=C3C)c(OC)c1
108 to 110 °C | O=C(Cc1ccc(Cl)cc1)N1CCC2(CC1)Cc1ccccc1O2
178 to 179 °C | O=C(NC(=O)c1c(F)cccc1F)Nc1cc(Cl)c(OC(F)(F)C(F)(F)F)cc1Cl
124 to 130 °C | CC(C)(C)C(=O)N[C@@H](Cc1ccccc1)C(=O)N[C@@H](Cc1ccccc1)C(=O)NC(CO)Cc1c[nH]cn1 (some centres undefined)
208 to 209 °C | CCCn1nnc(NC(=O)C2c3ccccc3Oc3ccccc32)n1
104 to 105 °C | O=C1c2ccc(Cl)cc2CC1(F)Br (centres undefined)
135 to 136 °C | O=S(=O)(NCCc1cccc(CCNS(=O)(=O)c2ccc(Cl)cc2)c1)c1ccc(Cl)cc1
168 to 172 °C | CC1(C)CCC(C)(C)c2cc(-c3cc(-c4ccc(C(=O)O)cc4)ccc3OCCCCCCCO)ccc21
120 to 121 °C | CCOC(=O)C(C)(C)Oc1ccc(OCCn2c(=O)sc3cc(C(=O)c4ccccc4)ccc32)cc1
58 to 60 °C | Cc1nn(C)c(OCC(=O)C(C)(C)CCl)c1C(=O)c1ccc(Cl)cc1Cl
182 to 185 °C | COC(=O)C(C(C)C)N(C)S(=O)(=O)c1ccc(-c2ccc(NC(=O)c3oc4cccc(C(O)CO)c4c3C)cc2)cc1 (centres undefined)

melting point | SMILES
200 to 202 °C | CC1CCN(c2ccc(C(=O)Nc3ccc4nc(CN5CCCC5)ccc4c3)cc2)CC1
71 to 74 °C | CN(C)C(=O)n1cc(C(=O)C2CSC(c3cccnc3)N2)c2ccc(OCc3ccc(F)cc3)cc21 (centres undefined)
154 to 157 °C | O=C1OC(=O)c2c(Sc3ccc(Cl)c(Cl)c3)cc([N+](=O)[O-])cc21
48 to 50 °C | CCc1cc2c(cc1OCc1ccccc1)CCC1C2CCC2(C)C(CCO[Si](c3ccccc3)(c3ccccc3)C(C)(C)C)CCC12 (centres undefined)
232 to 233 °C | CS(=O)(=O)c1ccc(-c2oc3ccccc3c(=O)c2-c2cnccc2Cl)cc1
115 °C | O=C(c1ccc(C(F)(F)F)cc1Sc1ccccc1)c1cnoc1C1CC1
195 to 198 °C | Cc1oc2ccccc2c1C(=O)NCc1ccc2cc(O)ccc2c1
151 °C | Cn1cncc1-c1c(C(CC#N)c2ccc(Cl)cc2)ccc2c1c(-c1cccc(Cl)c1)cc(=O)n2C (centres undefined)
158 to 160 °C | CCOC(=O)c1[nH]c2ccc(C)cc2c1Sc1ccc(Cl)cc1
279 to 280 °C | CC(C)c1cccc(C(C)C)c1NC(=O)Cc1c(-c2ccccc2)c2cc(Cl)ccc2n1C
150 to 151 °C | CCOC(=O)c1cn(-c2ccccc2)nc1OCc1ccc(OCc2nc(-c3ccco3)oc2C)c(OC)c1
145 to 151 °C | CCC(CC)COc1cccc2nc(C)c(C(=O)O)c(N)c12
192 °C | CC(C)c1ccc(S(=O)(=O)n2c(Cc3ccc(C(=O)O)cc3)cc3cc(Cl)ccc32)cc1
30 to 32 °C | COCc1oc(C)cc(=O)c1OCc1ccccc1
193 to 200 °C | COc1ccc(N2CCN(c3ccc(N)nc3-c3ccc(C)cc3)CC2)cc1
182 to 183 °C | CNC(=O)c1cnn(-c2ccccc2)c1Cl
288 to 290 °C | O=C1CCC(N2C(=O)c3ccc(CNC(=O)Nc4ccccc4)cc3C2=O)C(=O)N1 (centres undefined)
132 to 133 °C | CCOC(=O)c1cc2c(C)cccc2n1CCCC(=O)O
146 to 147 °C | COC(=O)c1c(-c2ccc(F)cc2)nc(N)nc1C(C)C
